According to PubChem BioAssay AID330 (DTP/NCI, 2004):
“And” between values parts separate entries of the source, which are not always exact repeats. Equal values may be shown once. Inconclusive results and toxic doses are left out. The calls were made as follows: active = survival T/C of 150% or more; inactive = T/C below 125% in these data. Peptide text beside a SMILES is read from it.

Test system: P388 leukemia ip, CD2F1 mice, survival T/C
Experiment: NCI In Vivo Anticancer Drug Screen. Data for tumor model P388 Leukemia (intraperitoneal) in CD2F1 (CDF1) mice
Details: endpoint: median survival time, higher = longer survival
Description: The antitumor activity of compounds was measured in mice bearing transplantable tumors. Survival or tumor size were measured and the results are expressed as the measurement made in the treated group (T) divided by the measurement made in the vehicle treated control group (C). The tumor model used in this assay is P388 Leukemia (intraperitoneal) in CD2F1 (CDF1) mice

[1] = dose: 60.0 mg/kg/injection, schedule: Q01DX005 (ip), vehicle: saline with Tween-80
[2] = dose: 120.0 mg/kg/injection, schedule: Q01DX005 (ip), vehicle: saline with Tween-80
[3] = dose: 240.0 mg/kg/injection, schedule: Q01DX005 (ip), vehicle: saline with Tween-80
[4] = dose: 50.0 mg/kg/injection, schedule: Q01DX009 (ip), vehicle: saline with Tween-80
[5] = dose: 100.0 mg/kg/injection, schedule: Q01DX009 (ip), vehicle: saline with Tween-80
[6] = dose: 200.0 mg/kg/injection, schedule: Q01DX009 (ip), vehicle: saline with Tween-80
[7] = dose: 50.0 mg/kg/injection, schedule: Q01DX009 (ip), vehicle: saline
[8] = dose: 100.0 mg/kg/injection, schedule: Q01DX009 (ip), vehicle: saline
[9] = dose: 25.0 mg/kg/injection, schedule: Q01DX005 (ip), vehicle: Klucel (hydroxypropylcellulose) (HPC)
[10] = dose: 50.0 mg/kg/injection, schedule: Q01DX005 (ip), vehicle: Klucel (hydroxypropylcellulose) (HPC)
[11] = dose: 100.0 mg/kg/injection, schedule: Q01DX005 (ip), vehicle: Klucel (hydroxypropylcellulose) (HPC)
[12] = dose: 6.25 mg/kg/injection, schedule: Q01DX009 (ip), vehicle: saline
[13] = dose: 12.5 mg/kg/injection, schedule: Q01DX009 (ip), vehicle: saline
[14] = dose: 25.0 mg/kg/injection, schedule: Q01DX009 (ip), vehicle: saline
[15] = dose: 200.0 mg/kg/injection, schedule: Q01DX005 (ip), vehicle: Klucel (hydroxypropylcellulose) (HPC)

Measured: T/C

CN1CCCN(C)C1c1cc([N+](=O)[O-])ccc1O
inactive: dose: 6.25 mg/kg/injection, schedule: Q01DX009 (ip), vehicle: saline sonified 100 % of control | dose: 12.5 mg/kg/injection, schedule: Q01DX009 (ip), vehicle: saline sonified 100 % of control | dose: 25.0 mg/kg/injection, schedule: Q01DX009 (ip), vehicle: saline sonified 100 % of control

[Cu+2].[Cu+2].c1ccc2c(c1)-c1nc-2nc2[n-]c(nc3nc(nc4[n-]c(n1)c1ccccc41)-c1ccccc1-3)c1cc3c4nc5nc(nc6[n-]c(nc7nc(nc([n-]4)c3cc21)-c1ccccc1-7)c1ccccc61)-c1ccccc1-5
inactive: [1] 100 % of control | [2] 89 % of control | [3] 95 % of control

S=C1SCN(Cc2ccccc2)CN1Cc1ccccc1
inactive: [4] 100 % of control | [5] 93 % of control | [6] 89 % of control

CCC(=O)NS(=O)(=O)c1cccnc1Nc1c(Cl)cccc1Cl
inactive: [7] 96 % of control | [8] 96 % of control | dose: 200.0 mg/kg/injection, schedule: Q01DX009 (ip), vehicle: saline 100 % of control

Nc1[nH]cnc(=S)c1N
inactive: dose: 100.0 mg/kg/injection, schedule: Q04DX002 (ip), vehicle: saline with Tween-80 106 % of control | dose: 200.0 mg/kg/injection, schedule: Q04DX002 (ip), vehicle: saline with Tween-80 102 % of control | dose: 400.0 mg/kg/injection, schedule: Q04DX002 (ip), vehicle: saline with Tween-80 106 % of control

CC(C)NC(=O)OCc1ncn(-c2ccccc2)c1COC(=O)NC(C)C
inactive: dose: 12.5 mg/kg/injection, schedule: Q01DX005 (ip), vehicle: Klucel (hydroxypropylcellulose) (HPC) 103 % of control | [9] 103 % of control | [10] 87 % of control and 97 % of control | [11] 87 % of control and 91 % of control

CCC(C)NCCNCCNC(C)CC (centres undefined)
inactive: [12] 100 % of control | [13] 100 % of control | [14] 100 % of control

O=C1c2cc([N+](=O)[O-])ccc2-c2c(N=Cc3ccc4c(c3)OCO4)cccc21
inactive: [1] 90 % of control | [2] 91 % of control | [3] 99 % of control

C/C(=N\NC(=S)N1CCCC1)c1cccc(C)n1
inactive: dose: 12.5 mg/kg/injection, schedule: Q01DX005 (ip), vehicle: saline + Tween-80 + alcohol 104 % of control and 106 % of control | dose: 25.0 mg/kg/injection, schedule: Q01DX005 (ip), vehicle: saline + Tween-80 + alcohol 108 % of control and 113 % of control | dose: 50.0 mg/kg/injection, schedule: Q01DX005 (ip), vehicle: saline + Tween-80 + alcohol 122 % of control

CCN(CC)CCOc1cccc2c1C(=O)c1ccccc1C2=O
inactive: [7] 105 % of control and 98 % of control | [8] 106 % of control

Cc1ccc2c(c1)Pc1cc(C)ccc1S2
inactive: dose: 60.0 mg/kg/injection, schedule: Q01DX005 (ip), vehicle: Klucel (hydroxypropylcellulose) (HPC) 109 % of control | dose: 120.0 mg/kg/injection, schedule: Q01DX005 (ip), vehicle: Klucel (hydroxypropylcellulose) (HPC) 101 % of control | dose: 240.0 mg/kg/injection, schedule: Q01DX005 (ip), vehicle: Klucel (hydroxypropylcellulose) (HPC) 104 % of control

NC(=O)CCCCO
inactive: dose: 100.0 mg/kg/injection, schedule: Q04DX003 (ip), vehicle: saline 102 % of control | dose: 200.0 mg/kg/injection, schedule: Q04DX003 (ip), vehicle: saline 102 % of control | dose: 400.0 mg/kg/injection, schedule: Q04DX003 (ip), vehicle: saline 109 % of control

CCCCN1CCC(CNc2ccnc3cc(Cl)ccc23)C1 (centres undefined)
inactive: dose: 12.5 mg/kg/injection, schedule: Q01DX005 (ip), vehicle: saline with Tween-80 93 % of control | dose: 25.0 mg/kg/injection, schedule: Q01DX005 (ip), vehicle: saline with Tween-80 90 % of control | dose: 50.0 mg/kg/injection, schedule: Q01DX005 (ip), vehicle: saline with Tween-80 109 % of control and 93 % of control

CC(C)(C)OC(=O)NN=C1CCC(C(C)(C)C)CC1 (centres undefined)
inactive: dose: 25.0 mg/kg/injection, schedule: Q04DX003 (ip), vehicle: Klucel (hydroxypropylcellulose) (HPC) 100 % of control | dose: 50.0 mg/kg/injection, schedule: Q04DX003 (ip), vehicle: Klucel (hydroxypropylcellulose) (HPC) 95 % of control | dose: 100.0 mg/kg/injection, schedule: Q04DX003 (ip), vehicle: Klucel (hydroxypropylcellulose) (HPC) 100 % of control

Cc1[nH]c(=O)n(C(C)C)c(=O)c1Br
inactive: dose: 100.0 mg/kg/injection, schedule: Q01DX001 (ip), vehicle: saline sonified 100 % of control | dose: 200.0 mg/kg/injection, schedule: Q01DX001 (ip), vehicle: saline sonified 100 % of control | dose: 400.0 mg/kg/injection, schedule: Q01DX001 (ip), vehicle: saline sonified 100 % of control

O=[N+]([O-])c1ccccc1S(=O)(=O)N(CCCCN(S(=O)(=O)c1ccccc1[N+](=O)[O-])S(=O)(=O)c1ccccc1[N+](=O)[O-])S(=O)(=O)c1ccccc1[N+](=O)[O-]
inactive: [1] 93 % of control | [2] 91 % of control | [3] 87 % of control

CC(O)C(N)C(=O)NC(Cc1ccc(O)cc1)C(=O)NC(CCCCN)C(=O)O (stereo not drawn) (H-Thr-Tyr-Lys-OH; configuration not given here)
inactive: dose: 50.0 mg/kg/injection, schedule: Q01DX005 (ip), vehicle: saline 101 % of control | dose: 100.0 mg/kg/injection, schedule: Q01DX005 (ip), vehicle: saline 101 % of control | dose: 200.0 mg/kg/injection, schedule: Q01DX005 (ip), vehicle: saline 106 % of control

CCOC(CN=Cc1cc(C)c2oc3ccccc3c2c1C)OCC
inactive: [4] 100 % of control | [5] 100 % of control | [6] 95 % of control

Oc1cc(CN2CCCCC2)c(O)cc1CN1CCCCC1
inactive: dose: 3.12 mg/kg/injection, schedule: Q01DX009 (ip), vehicle: saline 106 % of control | [12] 106 % of control | [13] 98 % of control | [14] 104 % of control

COC(=O)c1cc(C(=O)OC)c2c3[nH]cnc3ncn2c1=O
inactive: dose: 100.0 mg/kg/injection, schedule: Q04DX003 (ip), vehicle: saline with Tween-80 98 % of control | dose: 200.0 mg/kg/injection, schedule: Q04DX003 (ip), vehicle: saline with Tween-80 100 % of control | dose: 400.0 mg/kg/injection, schedule: Q04DX003 (ip), vehicle: saline with Tween-80 97 % of control

CN(C)c1ccc(C(=N)Cc2ccc3ccccc3n2)cc1
inactive: dose: 37.5 mg/kg/injection, schedule: Q01DX009 (ip), vehicle: Klucel (hydroxypropylcellulose) (HPC) 106 % of control | dose: 50.0 mg/kg/injection, schedule: Q01DX009 (ip), vehicle: Klucel (hydroxypropylcellulose) (HPC) 92 % of control | dose: 75.0 mg/kg/injection, schedule: Q01DX009 (ip), vehicle: Klucel (hydroxypropylcellulose) (HPC) 98 % of control | dose: 100.0 mg/kg/injection, schedule: Q01DX009 (ip), vehicle: Klucel (hydroxypropylcellulose) (HPC) 95 % of control | dose: 150.0 mg/kg/injection, schedule: Q01DX009 (ip), vehicle: Klucel (hydroxypropylcellulose) (HPC) 109 % of control | dose: 200.0 mg/kg/injection, schedule: Q01DX009 (ip), vehicle: Klucel (hydroxypropylcellulose) (HPC) 100 % of control

COC(=O)C1=CO[C@@H](OC2OC(CO)C(O)C(O)C2O)[C@H]2[C@@H]1C=C[C@@]21C=C([C@H](C)OC(=O)/C=C/c2ccc(OC3OC(CO)C(O)C(O)C3O)cc2)C(=O)O1 (some centres undefined)
inactive: dose: 56.0 mg/kg/injection, schedule: Q01DX005 (ip), vehicle: water 105 % of control | dose: 112.0 mg/kg/injection, schedule: Q01DX005 (ip), vehicle: water 105 % of control | dose: 225.0 mg/kg/injection, schedule: Q01DX005 (ip), vehicle: water 104 % of control

O=C(O)CNC(=S)C(=S)NCC(=O)O
inactive: [10] 101 % of control | [11] 97 % of control | [15] 90 % of control

CC(C)CCCC(C)Cc1cc(CC(C)CCCC(C)C)n(C)n1 (centres undefined)
inactive: [9] 108 % of control and 109 % of control and 97 % of control | [10] 102 % of control and 109 % of control and 96 % of control | [11] 101 % of control and 105 % of control and 111 % of control | [15] 108 % of control and 121 % of control and 96 % of control | dose: 400.0 mg/kg/injection, schedule: Q01DX005 (ip), vehicle: Klucel (hydroxypropylcellulose) (HPC) 100 % of control

COc1ccc(C2COc3cc(O)c(O)cc3C2)cc1 (centres undefined)
inactive: [1] 97 % of control | [2] 107 % of control | [3] 97 % of control

COc1cc(/C=C/C(=O)NCCCCN=[N+]=[N-])ccc1OCc1ccccc1
inactive: [1] 93 % of control | [2] 96 % of control | [3] 97 % of control
